According to ChEMBL document CHEMBL1201862, “PubChem BioAssay data set” (2004):
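Briefly, cells in 96-well plates were exposed to five compound concentrations for 48 h, and endpoints were estimated by linear interpolation. Abbreviation: GI50, concentration required for 50% inhibition of growth.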 Activity calls are given as the source filed them. No stated cut-off is given here; in the data, active = GI50 up to about 1.1 µM and inactive = higher.

Assays:
Experiment in all cases: NCI anticancer screen, dose series, 48 h
A549 = tested on: A549
CAKI-1 = tested on: CAKI-1
HCT-116 = tested on: HCT-116
K562 = tested on: K562
KM12 = tested on: KM12
MOLT-4 = tested on: MOLT-4
Malme-3M = tested on: Malme-3M
NCI-H226 = tested on: NCI-H226
OVCAR-3 = tested on: OVCAR-3
OVCAR-8 = tested on: OVCAR-8
RPMI-8226 = tested on: RPMI-8226
SF-268 = tested on: SF-268
SF-295 = tested on: SF-295
SK-MEL-28 = tested on: SK-MEL-28
SK-MEL-5 = tested on: SK-MEL-5
SNB-19 = tested on: SNB-19
UACC-257 = tested on: UACC-257
UO-31 = tested on: UO-31
XF498 = tested on: XF498
SR = tested on: SR

CC(=O)OC1C(O)C(C)OC(OC(=O)C2CCC3C(C2)OC2(CC(OC(=O)/C=C/c4ccccc4)C(C)CO2)C32CO2)C1OC1OC(C)C(O)C(O)C1O (centres undefined)
GI50 (A549): 0.118 µM (active)
GI50 (CAKI-1): 2.08 µM (inactive)
GI50 (HCT-116): 0.038 µM (active)
GI50 (K562): 0.0383 µM (active)
GI50 (KM12): 0.0371 µM (active)
GI50 (MOLT-4): 0.0337 µM (active)
GI50 (Malme-3M): 0.0378 µM (active)
GI50 (NCI-H226): 0.0435 µM (active)
GI50 (OVCAR-3): 0.0578 µM (active)
GI50 (OVCAR-8): 0.0789 µM (active)
GI50 (RPMI-8226): 0.0361 µM (active)
GI50 (SF-268): 0.0362 µM (active)
GI50 (SF-295): 0.0776 µM (active)
GI50 (SK-MEL-28): 0.0355 µM (active)
GI50 (SK-MEL-5): 0.0332 µM (active)
GI50 (SNB-19): 0.0399 µM (active)
GI50 (UACC-257): 0.0325 µM (active)
GI50 (UO-31): 7.78 µM (inactive)
GI50 (XF498): 0.0504 µM (active)

CC1OC(CO)(n2cnc3c(N)ncnc32)C(O)C1O (centres undefined)
GI50 (A549): > 100 µM (inactive)
GI50 (CAKI-1): > 100 µM (inactive)
GI50 (HCT-116): > 100 µM (inactive)
GI50 (K562): > 100 µM (inactive)
GI50 (KM12): > 100 µM (inactive)
GI50 (MOLT-4): > 100 µM (inactive)
GI50 (Malme-3M): > 100 µM (inactive)
GI50 (NCI-H226): > 100 µM (inactive)
GI50 (OVCAR-3): > 100 µM (inactive)
GI50 (OVCAR-8): > 100 µM (inactive)
GI50 (RPMI-8226): > 100 µM (inactive)
GI50 (SF-268): > 100 µM (inactive)
GI50 (SF-295): > 100 µM (inactive)
GI50 (SK-MEL-28): > 100 µM (inactive)
GI50 (SK-MEL-5): > 100 µM (inactive)
GI50 (SNB-19): > 100 µM (inactive)
GI50 (UACC-257): > 100 µM (inactive)
GI50 (UO-31): > 100 µM (inactive)
GI50 (XF498): > 100 µM (inactive)

O=C(O)CN1CCN(CC(=O)O)CCN(CC(=O)O)CC1
GI50 (A549): 3.03 µM (inactive)
GI50 (CAKI-1): 8890 µM (inactive)
GI50 (HCT-116): 3.7 µM (inactive)
GI50 (K562): 2.31 µM (inactive)
GI50 (KM12): 5.81 µM (inactive)
GI50 (MOLT-4): 4.71 µM (inactive)
GI50 (Malme-3M): > 28.7 µM (inactive)
GI50 (OVCAR-3): > 94.6 µM (inactive)
GI50 (OVCAR-8): 4.07 µM (inactive)
GI50 (RPMI-8226): 5.36 µM (inactive)
GI50 (SF-268): 23.6 µM (inactive)
GI50 (SF-295): 37.5 µM (inactive)
GI50 (SK-MEL-28): > 72.1 µM (inactive)
GI50 (SK-MEL-5): 2.79 µM (inactive)
GI50 (SNB-19): > 100 µM (inactive)
GI50 (SR): 3.27 µM (inactive)
GI50 (UACC-257): 58.7 µM (inactive)
GI50 (UO-31): 83.8 µM (inactive)

C=CCNC(=O)CN(CC(=O)OC)C1CCCCC1N(CC(=O)OC)CC(=O)OC (centres undefined)
GI50 (A549): > 100 µM (inactive)
GI50 (CAKI-1): > 100 µM (inactive)
GI50 (HCT-116): > 100 µM (inactive)
GI50 (K562): > 100 µM (inactive)
GI50 (KM12): > 100 µM (inactive)
GI50 (MOLT-4): > 100 µM (inactive)
GI50 (Malme-3M): > 100 µM (inactive)
GI50 (NCI-H226): > 100 µM (inactive)
GI50 (OVCAR-3): > 100 µM (inactive)
GI50 (OVCAR-8): > 100 µM (inactive)
GI50 (RPMI-8226): > 100 µM (inactive)
GI50 (SF-268): > 100 µM (inactive)
GI50 (SF-295): > 100 µM (inactive)
GI50 (SK-MEL-28): > 100 µM (inactive)
GI50 (SK-MEL-5): > 100 µM (inactive)
GI50 (SNB-19): > 100 µM (inactive)
GI50 (UACC-257): > 100 µM (inactive)
GI50 (UO-31): > 100 µM (inactive)

CCOc1ccc2nc(NC(=O)C(=O)C(C(=O)c3ccccc3F)C3OC(=O)c4ccccc43)sc2c1 (centres undefined)
GI50 (A549): 31.6 µM (inactive)
GI50 (CAKI-1): 31.8 µM (inactive)
GI50 (HCT-116): 17.6 µM (inactive)
GI50 (K562): 21.8 µM (inactive)
GI50 (KM12): 0.723 µM (active)
GI50 (MOLT-4): 10.3 µM (inactive)
GI50 (NCI-H226): 5.01 µM (inactive)
GI50 (OVCAR-8): 16 µM (inactive)
GI50 (RPMI-8226): 19.1 µM (inactive)
GI50 (SF-268): 16.1 µM (inactive)
GI50 (SK-MEL-28): 24.4 µM (inactive)
GI50 (SK-MEL-5): 15.9 µM (inactive)
GI50 (SNB-19): 14.5 µM (inactive)
GI50 (SR): 11.7 µM (inactive)
GI50 (UACC-257): 41.3 µM (inactive)
GI50 (UO-31): 18.4 µM (inactive)
GI50 (XF498): 24.1 µM (inactive)

Cn1c(=O)c2nc(N3CCCCC3)cnc2n(C)c1=O
GI50 (A549): > 100 µM (inactive)
GI50 (CAKI-1): > 100 µM (inactive)
GI50 (HCT-116): > 100 µM (inactive)
GI50 (K562): > 100 µM (inactive)
GI50 (KM12): > 100 µM (inactive)
GI50 (MOLT-4): > 100 µM (inactive)
GI50 (Malme-3M): > 100 µM (inactive)
GI50 (OVCAR-3): > 100 µM (inactive)
GI50 (OVCAR-8): > 100 µM (inactive)
GI50 (RPMI-8226): > 100 µM (inactive)
GI50 (SF-268): > 100 µM (inactive)
GI50 (SF-295): > 100 µM (inactive)
GI50 (SK-MEL-28): > 100 µM (inactive)
GI50 (SK-MEL-5): > 100 µM (inactive)
GI50 (SNB-19): > 100 µM (inactive)
GI50 (SR): > 100 µM (inactive)
GI50 (UACC-257): > 100 µM (inactive)
GI50 (UO-31): > 100 µM (inactive)
GI50 (XF498): > 100 µM (inactive)

CNC(=O)N(C)COC
GI50 (A549): > 100 µM (inactive)
GI50 (CAKI-1): > 100 µM (inactive)
GI50 (HCT-116): > 100 µM (inactive)
GI50 (KM12): > 100 µM (inactive)
GI50 (MOLT-4): > 100 µM (inactive)
GI50 (Malme-3M): > 100 µM (inactive)
GI50 (NCI-H226): > 100 µM (inactive)
GI50 (OVCAR-3): 32.3 µM (inactive)
GI50 (OVCAR-8): > 100 µM (inactive)
GI50 (RPMI-8226): > 100 µM (inactive)
GI50 (SF-268): > 100 µM (inactive)
GI50 (SF-295): > 100 µM (inactive)
GI50 (SK-MEL-28): > 100 µM (inactive)
GI50 (SNB-19): > 100 µM (inactive)
GI50 (SR): > 100 µM (inactive)
GI50 (UACC-257): > 100 µM (inactive)
GI50 (UO-31): > 100 µM (inactive)
GI50 (XF498): > 100 µM (inactive)

CC(C)CNC1=NCC(C)S1 (centres undefined)
GI50 (A549): > 100 µM (inactive)
GI50 (CAKI-1): > 100 µM (inactive)
GI50 (HCT-116): > 100 µM (inactive)
GI50 (K562): > 100 µM (inactive)
GI50 (KM12): > 100 µM (inactive)
GI50 (MOLT-4): > 100 µM (inactive)
GI50 (Malme-3M): > 100 µM (inactive)
GI50 (NCI-H226): > 100 µM (inactive)
GI50 (OVCAR-3): > 100 µM (inactive)
GI50 (RPMI-8226): > 100 µM (inactive)
GI50 (SF-268): 74.8 µM (inactive)
GI50 (SF-295): > 100 µM (inactive)
GI50 (SK-MEL-28): > 100 µM (inactive)
GI50 (SK-MEL-5): > 100 µM (inactive)
GI50 (SNB-19): > 100 µM (inactive)
GI50 (SR): > 100 µM (inactive)
GI50 (UACC-257): > 100 µM (inactive)
GI50 (UO-31): 79.3 µM (inactive)

C=C1C(=O)OC2C=C(C)CC3C=C(CCC=C(C)CCC12)C(=O)O3 (centres undefined)
GI50 (A549): 99.3 µM (inactive)
GI50 (CAKI-1): 54.7 µM (inactive)
GI50 (HCT-116): 33.1 µM (inactive)
GI50 (K562): 55.8 µM (inactive)
GI50 (KM12): 52.7 µM (inactive)
GI50 (MOLT-4): 54 µM (inactive)
GI50 (Malme-3M): 46.1 µM (inactive)
GI50 (NCI-H226): 72.8 µM (inactive)
GI50 (OVCAR-3): 56.8 µM (inactive)
GI50 (OVCAR-8): 72.3 µM (inactive)
GI50 (RPMI-8226): 44.9 µM (inactive)
GI50 (SF-268): 61.8 µM (inactive)
GI50 (SF-295): 79.4 µM (inactive)
GI50 (SK-MEL-28): 58.1 µM (inactive)
GI50 (SK-MEL-5): 67.9 µM (inactive)
GI50 (SNB-19): 122 µM (inactive)
GI50 (UACC-257): 43.1 µM (inactive)
GI50 (UO-31): 105 µM (inactive)

Cc1cn(Cc2cn(CC3OC(n4cc(C)c(=O)[nH]c4=O)CC3O)nn2)c(=O)[nH]c1=O (centres undefined)
GI50 (A549): > 100 µM (inactive)
GI50 (CAKI-1): > 100 µM (inactive)
GI50 (HCT-116): > 100 µM (inactive)
GI50 (KM12): > 100 µM (inactive)
GI50 (MOLT-4): > 100 µM (inactive)
GI50 (Malme-3M): > 100 µM (inactive)
GI50 (NCI-H226): > 100 µM (inactive)
GI50 (OVCAR-3): > 100 µM (inactive)
GI50 (OVCAR-8): > 100 µM (inactive)
GI50 (RPMI-8226): > 100 µM (inactive)
GI50 (SF-268): > 100 µM (inactive)
GI50 (SF-295): > 100 µM (inactive)
GI50 (SK-MEL-28): > 100 µM (inactive)
GI50 (SK-MEL-5): > 100 µM (inactive)
GI50 (SNB-19): > 100 µM (inactive)
GI50 (UACC-257): > 100 µM (inactive)
GI50 (UO-31): > 100 µM (inactive)

O=C1C(Cl)N(c2ccccc2Cl)C1c1c[nH]c2ccccc12 (centres undefined)
GI50 (A549): > 100 µM (inactive)
GI50 (HCT-116): > 100 µM (inactive)
GI50 (K562): > 100 µM (inactive)
GI50 (KM12): > 100 µM (inactive)
GI50 (MOLT-4): > 100 µM (inactive)
GI50 (Malme-3M): > 100 µM (inactive)
GI50 (OVCAR-3): > 100 µM (inactive)
GI50 (OVCAR-8): > 100 µM (inactive)
GI50 (RPMI-8226): > 100 µM (inactive)
GI50 (SF-268): > 100 µM (inactive)
GI50 (SF-295): > 100 µM (inactive)
GI50 (SK-MEL-28): > 100 µM (inactive)
GI50 (SK-MEL-5): > 100 µM (inactive)
GI50 (SNB-19): > 100 µM (inactive)
GI50 (SR): > 100 µM (inactive)
GI50 (UACC-257): > 100 µM (inactive)
GI50 (UO-31): > 100 µM (inactive)
GI50 (XF498): > 100 µM (inactive)
